Reference: PMC9862037, “Interactions of Mycotoxin Alternariol with Cytochrome P450 Enzymes and OATP Transporters” (Metabolites, 2022)
Read-outs that look alike come from different tables or passages of the source.

Tests used:
OATP1B1 = OATP1B1 (Homo sapiens, UniProt Q9Y6L6); format: cell-based; set-up: expressed in transfected cells
Description: The assays were performed as described recently. Cells were seeded on 96-well plates one day prior to the measurement. After washing three times with PBS at room temperature, cells were incubated for 15 min with 8-acetoxy-1,3,6-trisulfopyrene (Ace, 5 µM). After this “preloading” stage, the supernatant was removed, and the cells were incubated with the same amount of the probe (Counterflow assay) or without the probe in buffer pH 5.5 (Efflux assay) in the absence and the presence of AOH for further 20 min. Fixed concentrations of AOH were selected based on the IC50 values determined in the transport inhibition assay. […]. Cells were washed three times with ice-cold PBS, then NaOH solution (0.1 N, 200 µL/well) was added. After 20 min, fluorescence was measured with an Enspire plate reader in Ex/Em wavelengths 460/510 nm. Bottom reading was applied with two horizontal (X) and two vertical (Y) points, measurement height was 3 mm with 200 flashes. Fluorescence was compared to the preloaded control incubated with Ace alone, considered as 100%.

CYP2C9 = settings: read-out: IC50, CYP2C9-catalyzed tolbutamide hydroxylation; cited from earlier work
CYP3A4 = settings: read-out: IC50, CYP3A4-catalyzed midazolam hydroxylation, cited from earlier work
CYP2D6 = settings: read-out: IC50, CYP2D6-mediated dextromethorphan O-demethylation; cited from earlier work

OATP1B1, sequence (Q9Y6L6 whole entry): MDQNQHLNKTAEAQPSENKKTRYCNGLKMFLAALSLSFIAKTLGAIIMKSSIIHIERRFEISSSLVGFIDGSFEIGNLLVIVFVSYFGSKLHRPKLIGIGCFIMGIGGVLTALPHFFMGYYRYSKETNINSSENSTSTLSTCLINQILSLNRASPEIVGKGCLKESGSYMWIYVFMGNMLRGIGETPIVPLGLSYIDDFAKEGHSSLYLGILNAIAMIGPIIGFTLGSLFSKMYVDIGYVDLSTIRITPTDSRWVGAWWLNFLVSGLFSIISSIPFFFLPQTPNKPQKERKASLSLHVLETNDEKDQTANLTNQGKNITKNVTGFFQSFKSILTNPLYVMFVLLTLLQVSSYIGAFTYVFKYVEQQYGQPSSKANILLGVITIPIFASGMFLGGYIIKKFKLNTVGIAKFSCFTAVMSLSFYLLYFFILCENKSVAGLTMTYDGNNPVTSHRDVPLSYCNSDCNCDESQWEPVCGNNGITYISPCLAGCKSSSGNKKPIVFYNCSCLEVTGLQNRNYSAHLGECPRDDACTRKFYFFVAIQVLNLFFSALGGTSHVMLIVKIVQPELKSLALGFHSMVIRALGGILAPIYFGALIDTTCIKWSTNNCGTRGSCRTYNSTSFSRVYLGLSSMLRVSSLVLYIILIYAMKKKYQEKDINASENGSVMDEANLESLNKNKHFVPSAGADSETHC

C=O [formaldehyde]
fluorescence signal in the CCF (OATP1B1): no change in the fluorescence | effect on efflux of the probe (OATP1B1; pH 5.5): blocks the efflux

C[C@H]1CCCC(=O)CCC/C=C/c2cc(O)cc(O)c2C(=O)O1 [Zearalenone]
IC50 (CYP2C9): 0.54 µM | IC50 (CYP3A4; in vitro): 1.1 µM | IC50 (CYP2D6): 55.4 µM

CC(=O)OC[C@]12C[C@H](OC(=O)CC(C)C)C(C)=C[C@H]1O[C@@H]1[C@H](O)[C@@H](OC(C)=O)[C@@]2(C)[C@]12CO2 [T-2 toxin]
IC50 (CYP3A4): 27 µM
